Laboratory results published in patent US6683029B1, “Halopyrimidines” (Bayer Aktiengesellschaft, priority 1999, dated 2004).

How the values were obtained:
[1] = logP by HPLC (EEC Directive 79/831 Annex V. A8)
Plutella = Plutella test/synthetic feed; assay type: in vivo; settings: Plutella larvae on treated synthetic feed; concentration and time not stated
Description: Plutella Test/Synthetic Feed [table] […] A stated amount of the preparation of active compound of the desired concentration is pipetted onto a standardized amount of synthetic feed. After the methanol has evaporated, a film box lid covered with about 100 Plutella eggs is placed onto each cavity. The freshly hatched larvae migrate onto the treated synthetic feed. After the desired period of time, the kill in % is determined. 100% means that all animals have been killed; 0% means that none of the animals have been killed.

For CON=C(C(=O)OC)c1ccccc1Oc1ncnc(Oc2cccc(F)c2)c1F [Example 1, Methyl 2-{2-[6-(3-fluorophenoxy)-5-fluoro-pyrimidin-4-yloxy]-phenyl}-2-methoxyiminoacetate], the chromatographic logP [1] was 3.46.
With CON=C(C(=O)OC)c1ccccc1Oc1ncnc(Oc2cc(Cl)ccc2Cl)c1F [Example 10] the “activity (kill)” value (Plutella) was “good activity”.
With CCSCc1ccccc1Oc1ncnc(Oc2ccccc2C(=NOC)C(=O)OC)c1F [Example 16] the logP ([1]; HPLC, gradient method, acetonitrile/0.1% aqueous phosphoric acid) was 3.97.
